Measurements taken from patent US12643871B2, “Aryl formamide compound containing chiral sulfur oxide or salt thereof, preparation method, herbicidal composition and use thereof” (Qingdao Kingagroot Chemical Compound Co., Ltd., priority 2019, dated 2026).

Key:
Abutilon theophrasti = experiment: Weeding effect in post-emergence stage; type: in vivo; settings: 250 g/ha; 2 leaf stage; 15 days after application; fresh weight control rate
How it was run: (§1)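 Reported levels reflect fresh weight growth control rate banded 0 (<5%) through 5 (>85%), averaged over three repetitions. Treatment: foliar spray of 2-leaf-stage greenhouse plants at 15 to 500 g/ha, with 1.5 liter/ha methyl oleate synergist; assessment 15 days after application.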

Amaranthus retroflexus = experiment: Weeding effect in post-emergence stage; type: in vivo; settings: 250 g/ha; 2 leaf stage; 15 days after application; fresh weight control rate
How it was run: as §1

Digitaria sanguinalis = experiment: Weeding effect in post-emergence stage; type: in vivo; settings: 250 g/ha; 2 leaf stage; 15 days after application; fresh weight control rate
How it was run: as §1

Echinochloa crusgali [1] = experiment: Weeding effect in post-emergence stage; type: in vivo; settings: 250 g/ha; 2 leaf stage; 15 days after application; fresh weight control rate
How it was run: as §1

Setaria viridis = experiment: Weeding effect in post-emergence stage; type: in vivo; settings: 250 g/ha; 2 leaf stage; 15 days after application; fresh weight control rate
How it was run: as §1

Echinochloa crusgali [2] = experiment: Weed control effect evaluation in rice field; type: in vivo; settings: 60 g/ha; rice field pot, 14 days after treatment; ALS-inhibitor resistant weed from Heilongjiang
How it was run: (§2)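 Pots of paddy soil sown with weeds under 0.5–1 cm water, then 3–4 cm; WP or SC dilutions dripped at 0.5-leaf stage (Sagittaria tubers at primary-leaf stage). Weeds scored visually 14 days after treatment on 0–5 scale: 5 >85%, 4 60–85%, 3 40–60%, 2 20–40%, 1 5–20%, 0 <5% growth control.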

Leptochloa chinensis = experiment: Weed control effect evaluation in rice field; type: in vivo; settings: 60 g/ha; rice field pot, 14 days after treatment
How it was run: as §2

Monochoria vaginalis = experiment: Weed control effect evaluation in rice field; type: in vivo; settings: 60 g/ha; rice field pot, 14 days after treatment; ALS-inhibitor resistant weed from Heilongjiang
How it was run: as §2

Sagittaria trifolia = experiment: Weed control effect evaluation in rice field; type: in vivo; settings: 60 g/ha; rice field pot, 14 days after treatment; ALS-inhibitor resistant weed from Heilongjiang
How it was run: as §2

Rice = experiment: Transplanted rice safety evaluation; type: in vivo, rice (japonica rice/Indica rice); settings: 60 g/ha; transplanted 3 leaf stage rice, 21 days after treatment

Structure (SMILES): CC[S@@+]([O-])c1c(C(F)(F)F)ccc(C(=O)Nc2nnc(C)o2)c1SC [Compound 548]
- weeding effect in post-emergence stage, activity level (growth control rate), Abutilon theophrasti (Abutilon theophrasti): 5 (Level 5: growth control rate is above 85%)
- weeding effect in post-emergence stage, activity level (growth control rate), Amaranthus retroflexus (Amaranthus retroflexus): 5 (Level 5: growth control rate is above 85%)
- weeding effect in post-emergence stage, activity level (growth control rate), Digitaria sanguinalis (Digitaria sanguinalis): 5 (Level 5: growth control rate is above 85%)
- weeding effect in post-emergence stage, activity level (growth control rate), Echinochloa crusgali (Echinochloa crusgali [1]): 5 (Level 5: growth control rate is above 85%)
- weeding effect in post-emergence stage, activity level (growth control rate), Setaria viridis (Setaria viridis): 5 (Level 5: growth control rate is above 85%)
- Herbicidal effects of compounds, Echinochloa crusgali, 0-5 activity standard level (Echinochloa crusgali [2]): 5 (Level 5: growth control rate is above 85%)
- Herbicidal effects of compounds, Leptochloa chinensis, 0-5 activity standard level (Leptochloa chinensis): 5 (Level 5: growth control rate is above 85%)
- Herbicidal effects of compounds, Monochoria vaginalis, 0-5 activity standard level (Monochoria vaginalis): 5 (Level 5: growth control rate is above 85%)
- Herbicidal effects of compounds, Sagittaria trifolia, 0-5 activity standard level (Sagittaria trifolia): 5 (Level 5: growth control rate is above 85%)
- Herbicidal effects of compounds, Rice, 0-5 activity standard level (Rice): 0 (Level 0: growth control rate is less than 5%)
